Experimental data published in patent publication US8192962B2, “Processes for detecting toxic substances” (Daikin Industries, Ltd., priority 2001, dated 2012).

System: DNA repair protein genes
Assay: DNA chip mRNA expression in yeast, DNA repair protein genes (Table 3)
Assay type: cell-based, Saccharomyces cerevisiae S288C
Details: incubated two hours, concentrations as in the 1st table
Experimental: Yeast (Saccharomyces cerevisiae S288C (α SUC2mal mel gap2 CUP1)) were incubated at 25° C. on YPD medium (yeast extract 1%, polypepton 2%, glucose 2%). One of toxic chemical substances was added to the cells at logarithmic growth phase, and the cells were further incubated for two hours. Cells were cultured without any chemical substance in the same condition, and were used as control. Concentrations of the chemical substances were defined to inhibit the growth of the yeast but not lead to death.
After completion of the incubation, the culture was centrifuged to collect the cells. To the cells, sodium acetate buffer (50 mM sodium acetate, 10 mM EDTA, 1% SDS) was added, and the mixture was shaken at 65° C. for five minutes, followed by returning to room temperature, and obtaining the supernatant, of which the procedures were repeated two times. To the supernatant, ½ amount of a solution of phenol/chloroform was added, and the mixture was centrifuged to give a supernatant, which was added with an equal amount of chloroform, and the mixture was centrifuged to give a supernatant. To the supernatant, an equal amount of isopropanol containing 0.3 M sodium acetate was added, and the mixture was allowed to stand at room temperature for 30 minutes, after which the mixture was centrifuged to give a sediment of the whole RNAs. Seventy % ethanol was added to the sediment, and the mixture was again centrifuged to give a sediment, which was then dried and dissolved in water. mRNA was isolated from the whole RNAs as followings. In view of the fact that a poly A chain is attached to the 3′ terminus of mRNA, a polynucleotide having a poly T structure which was immobilized on the surface of latex beads was used to trap the mRNA, and then the mRNA was washed and eluted with spine column (Oligotex-dT30<Super>mRNA Purification Kit, Takara). Reverse transcription of the mRNA was conducted with a reverse transcriptase (Super Script II Reverse Transcriptase; catalogue No. 18064-014, GibcoBRL) using fluorescence-labeled nucleotides to give cDNAs that were introduced with Cy3-dUTP or Cy5-dUTP during the reverse transcription.
The labeled cDNAs were dissolved in TE buffer (10mM Tris-HCl/1 mM EDTA, pH8.0), and the solution was dropped on the DNA chip containing the whole genes of yeast (DNA Chip Research Inc. Japan) so that the cDNAs were hybridized on the DNA chip at 65° C. for over 12 hours. The fluoresces intensity of the DNA chip was read with a scanner, and the ratio relative to the fluorescence intensity resulting from the absence of chemical substance was estimated as the following, which is shown in Tables 1 to 9: […]

Measured: The level of expressed mRNA in the presence of chemical substance/The level of expressed mRNA in the absence of chemical substance

manganese ethylenebis(dithiocarbamate) [(8)]
0.7: yeast gene YML058W
1.4: yeast gene YGL163C | yeast gene YIL072W | yeast gene YLR103C | yeast gene YMR035W
1.0: yeast gene YCR014C | yeast gene YDR369C | yeast gene YGR180C | yeast gene YMR072W | yeast gene YOR386W | yeast gene YPL022W | yeast gene YPL164C
1.1: yeast gene YAL015C | yeast gene YAR007C | yeast gene YBR073W | yeast gene YBR272C | yeast gene YGR231C | yeast gene YHR164C | yeast gene YIL036W | yeast gene YLR233C | yeast gene YMR284W | yeast gene YNL261W
1.7: yeast gene YJR052W
2.0: yeast gene YMR096W
1.5: yeast gene YDL200C | yeast gene YDR054C | yeast gene YKL145W | yeast gene YLR288C
3.4: yeast gene YFL014W
0.9: yeast gene YEL019C | yeast gene YER162C | yeast gene YGL127C | yeast gene YGL249W | yeast gene YIL143C | yeast gene YJR046W | yeast gene YML032C | yeast gene YOL043C
1.8: yeast gene YGL091C | yeast gene YNL213C
1.3: yeast gene YGL058W | yeast gene YNL250W | yeast gene YOR005C | yeast gene YPL194W | yeast gene YPR025C
1.2: yeast gene YBL019W | yeast gene YDL017W | yeast gene YDL059C | yeast gene YIR002C | yeast gene YJL026W | yeast gene YNL312W
0.5: yeast gene YIL153W
0.8: yeast gene YEL037C | yeast gene YGR258C
